≈ marks a conversion by molar mass, not a printed value. Like-named read-outs stand apart in the source and are kept apart here.
How the values were obtained:
AD/CDR1-M639I = assay: MIC, modified CLSI M27-A3 broth microdilution; settings: for Fold-reduced resistance level (MIC) relative to AD/CDR1: M639I, 1 = no change; for MIC: Saccharomyces cerevisiae, read-out: MIC (drug susceptibility)
[1] = test system: AD/CDR1 (AD1-8u- overexpressing wt Cdr1); assay: MIC, modified CLSI M27-A3 broth microdilution; settings: Saccharomyces cerevisiae, read-out: MIC (drug susceptibility)
AD/CDR1-G521R = assay: MIC, modified CLSI M27-A3 broth microdilution; settings: for Fold-reduced resistance level (MIC) relative to AD/CDR1: G521R, 1 = no change; for MIC: Saccharomyces cerevisiae, read-out: MIC (drug susceptibility)
[2] = test system: AD/pABC3 (empty vector control, sensitive strain); assay: microbe, parasite or virus in culture; settings: Saccharomyces cerevisiae
AD/CDR1-T1355N = assay: MIC, modified CLSI M27-A3 broth microdilution; settings: for MIC: Saccharomyces cerevisiae, read-out: MIC (drug susceptibility); for Fold-reduced resistance level (MIC) relative to AD/CDR1: T1355N, 1 = no change
AD/CDR1-A713P = assay: MIC, modified CLSI M27-A3 broth microdilution; settings: for Fold-reduced resistance level (MIC) relative to AD/CDR1: A713P, 1 = no change; for MIC: Saccharomyces cerevisiae, read-out: MIC (drug susceptibility)
wt Cdr1 ATPase activity = wt Cdr1 ATPase activity (Candida albicans, UniProt Q5ANA3); assay: biochemical; settings: for IC50 / Ki: CDR1 (wt); for Ki: Dixon plot, read-out: Ki (Cdr1 ATPase activity); for Vmax of ATPase activity in the presence of inhibitor: CDR1; for type of inhibition of ATPase activity (Lineweaver-Burk): wt Cdr1
Chain of wt Cdr1 ATPase activity (Q5ANA3 whole entry): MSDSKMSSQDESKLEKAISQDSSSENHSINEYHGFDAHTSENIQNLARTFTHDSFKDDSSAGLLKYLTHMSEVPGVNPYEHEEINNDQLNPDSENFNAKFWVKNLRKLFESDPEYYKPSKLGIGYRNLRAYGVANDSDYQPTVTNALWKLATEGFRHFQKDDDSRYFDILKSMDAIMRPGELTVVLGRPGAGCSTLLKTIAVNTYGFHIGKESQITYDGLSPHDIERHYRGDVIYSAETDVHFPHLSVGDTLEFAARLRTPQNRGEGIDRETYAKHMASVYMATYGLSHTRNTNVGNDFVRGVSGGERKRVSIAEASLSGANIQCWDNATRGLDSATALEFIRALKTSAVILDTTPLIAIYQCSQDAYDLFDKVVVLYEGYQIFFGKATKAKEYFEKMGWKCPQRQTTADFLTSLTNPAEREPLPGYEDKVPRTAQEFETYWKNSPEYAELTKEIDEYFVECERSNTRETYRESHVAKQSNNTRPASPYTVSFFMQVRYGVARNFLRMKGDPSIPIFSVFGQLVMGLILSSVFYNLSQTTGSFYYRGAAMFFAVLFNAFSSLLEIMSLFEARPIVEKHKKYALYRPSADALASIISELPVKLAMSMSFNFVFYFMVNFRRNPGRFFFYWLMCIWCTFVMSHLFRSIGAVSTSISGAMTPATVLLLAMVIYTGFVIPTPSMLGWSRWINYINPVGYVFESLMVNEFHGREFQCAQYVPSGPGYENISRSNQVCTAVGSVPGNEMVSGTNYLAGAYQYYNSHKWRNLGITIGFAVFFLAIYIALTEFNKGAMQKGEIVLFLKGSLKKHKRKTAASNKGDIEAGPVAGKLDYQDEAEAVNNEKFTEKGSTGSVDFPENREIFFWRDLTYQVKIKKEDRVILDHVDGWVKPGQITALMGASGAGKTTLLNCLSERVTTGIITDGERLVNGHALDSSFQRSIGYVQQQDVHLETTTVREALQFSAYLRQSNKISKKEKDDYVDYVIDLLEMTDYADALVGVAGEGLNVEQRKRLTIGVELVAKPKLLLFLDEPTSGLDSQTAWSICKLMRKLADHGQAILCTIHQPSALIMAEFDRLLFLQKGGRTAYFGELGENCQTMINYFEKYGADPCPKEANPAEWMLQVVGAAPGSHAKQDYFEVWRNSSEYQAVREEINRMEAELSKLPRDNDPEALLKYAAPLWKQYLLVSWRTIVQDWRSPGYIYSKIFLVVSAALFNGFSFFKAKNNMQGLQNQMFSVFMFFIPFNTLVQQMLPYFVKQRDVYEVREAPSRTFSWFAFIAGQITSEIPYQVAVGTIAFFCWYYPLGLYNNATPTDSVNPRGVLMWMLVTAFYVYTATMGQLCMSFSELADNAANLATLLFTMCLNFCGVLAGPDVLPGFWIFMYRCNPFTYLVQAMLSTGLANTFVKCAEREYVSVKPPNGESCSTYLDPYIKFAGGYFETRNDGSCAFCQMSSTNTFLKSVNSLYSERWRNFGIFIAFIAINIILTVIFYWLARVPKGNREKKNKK

[3] = read-out: MIC (drug susceptibility), strain AD/pABC3
[4] = read-out: MIC (drug susceptibility)
[5] = > = only partial inhibition, none = no reduction at highest concentration, read-out: Estimated IC50 for substrate inhibition of the ATPase activity

SMILES | Fold-reduced resistance level (MIC) relative to AD/CDR1 (AD/CDR1-M639I) [fold] | MIC (AD/CDR1-M639I) [µg/mL] | MIC [1] [µg/mL] | Fold-reduced resistance level (MIC) relative to AD/CDR1 (AD/CDR1-G521R) [fold] | MIC (AD/CDR1-G521R) [µg/mL] | MIC [2, 3] [µg/mL] | MIC (AD/CDR1-T1355N) [µg/mL] | Fold-reduced resistance level (MIC) relative to AD/CDR1 (AD/CDR1-T1355N) [fold] | Fold-reduced resistance level (MIC) relative to AD/CDR1 (AD/CDR1-A713P) [fold] | MIC (AD/CDR1-A713P) [µg/mL] | MIC [2, 4] [µg/mL] | IC50 (wt Cdr1 ATPase activity; [5]) [µM] | Ki (wt Cdr1 ATPase activity) [µM] | Vmax of ATPase activity in the presence of inhibitor (wt Cdr1 ATPase activity; [I] 0.5 μM) [nmol/min/mg] | Vmax of ATPase activity in the presence of inhibitor (wt Cdr1 ATPase activity; [I] 1.0 μM) [nmol/min/mg] | type of inhibition of ATPase activity (Lineweaver-Burk) (wt Cdr1 ATPase activity) | IC50 (wt Cdr1 ATPase activity; from Fig. 4, read-out: IC50 for inhibition of Cdr1 ATPase activity) [µM] | Vmax of ATPase activity in the presence of inhibitor (wt Cdr1 ATPase activity; [I] 2.0 μM) [nmol/min/mg]
C/C=C/C/C=C/CCC(=O)[C@H]1O[C@H]1C(N)=O [CER, cerulenin] | 2 | 4 (≈ 17.9 µM) | 8 (≈ 35.8 µM) | 2 | 4 (≈ 17.9 µM) | 0.25 (≈ 1.12 µM) | 4 (≈ 17.9 µM) | 2 | 2 | 4 (≈ 17.9 µM) |  |  |  |  |  |  |  | 
C[C@@H]1C[C@@H]([C@H](O)CC2CC(=O)NC(=O)C2)C(=O)[C@@H](C)C1 [CHX, cycloheximide] | 2 | 1 (≈ 3.55 µM) | 2 (≈ 7.11 µM) | 2 | 1 (≈ 3.55 µM) |  | 2 (≈ 7.11 µM) | 1 | 2 | 1 (≈ 3.55 µM) | 0.016 (≈ 0.0569 µM) |  |  |  |  |  |  | 
Clc1ccccc1C(c1ccccc1)(c1ccccc1)n1ccnc1 [CLT, clotrimazole] |  | 8 (≈ 23.2 µM) | 8 (≈ 23.2 µM) |  |  |  | 4 (≈ 11.6 µM) |  |  | 1 (≈ 2.9 µM) | 0.002 (≈ 0.0058 µM) |  |  |  |  |  |  | 
CCC(C)n1ncn(-c2ccc(N3CCN(c4ccc(OCC5COC(Cn6cncn6)(c6ccc(Cl)cc6Cl)O5)cc4)CC3)cc2)c1=O (stereo not shown) [ITC, itraconazole] | 2 | 16 (≈ 22.7 µM) | 32 (≈ 45.3 µM) | 128 | 0.25 (≈ 0.354 µM) | 0.031 (≈ 0.0439 µM) | 16 (≈ 22.7 µM) | 2 |  | 1 (≈ 1.42 µM) |  | > 32 |  |  |  |  |  | 
CC(=O)N1CCN(c2ccc(OCC3COC(Cn4ccnc4)(c4ccc(Cl)cc4Cl)O3)cc2)CC1 (stereo not shown) [KTC, ketoconazole] | 2 | 4 (≈ 7.53 µM) | 8 (≈ 15.1 µM) |  | 0.125 (≈ 0.235 µM) |  | 4 (≈ 7.53 µM) | 2 | 8 | 1 (≈ 1.88 µM) | 0.008 (≈ 0.0151 µM) | 13 |  |  |  |  |  | 
C/C1=C/C(=O)O[C@@H]2C[C@@H](CC[C@H](C)/C=C\C=C\CC1)O[C@@](O)([C@@H]1CSC(=O)N1)C2 [LaA, latrunculin A] | 1 | 8 (≈ 19 µM) | 8 (≈ 19 µM) |  | 0.125 (≈ 0.297 µM) |  | 2 (≈ 4.74 µM) | 4 | 4 | 2 (≈ 4.74 µM) | 0.016 (≈ 0.038 µM) |  |  |  |  |  |  | 
Clc1ccc(COC(Cn2ccnc2)c2ccc(Cl)cc2Cl)c(Cl)c1 (stereo not shown) [MCZ, miconazole] | 4 | 2 (≈ 4.81 µM) | 8 (≈ 19.2 µM) | 16 | 0.5 (≈ 1.2 µM) |  | 2 (≈ 4.81 µM) | 4 | 8 | 1 (≈ 2.4 µM) | 0.008 (≈ 0.0192 µM) |  |  |  |  |  |  | 
CC[C@@]1([C@@H]2O[C@@H]([C@H]3O[C@@](O)(CO)[C@H](C)C[C@@H]3C)C[C@@H]2C)CC[C@H]([C@]2(C)CC[C@]3(C[C@H](O)[C@@H](C)[C@@H]([C@@H](C)[C@@H](OC)[C@H](C)C(=O)O)O3)O2)O1 [MON, monensin] | 1 | 128 (≈ 191 µM) | 128 (≈ 191 µM) | 256 | 0.5 (≈ 0.745 µM) | 0.031 (≈ 0.0462 µM) | 128 (≈ 191 µM) | 1 |  | 128 (≈ 191 µM) |  | > 256 |  |  |  |  |  | 
CO[C@@H]1C[C@@H](C[C@H]2CC[C@H](C)[C@H]([C@@H](C)C(=O)O)O2)O[C@]2(O[C@](C)([C@H]3CC[C@@](C)([C@@H]4O[C@@H]([C@H]5O[C@@](O)(CO)[C@H](C)C[C@@H]5C)C[C@@H]4C)O3)C[C@H]2C)[C@@H]1C [NIG, nigericin] | 1 | 128 (≈ 177 µM) | 128 (≈ 177 µM) |  | 0.25 (≈ 0.345 µM) | 0.063 (≈ 0.0869 µM) | 128 (≈ 177 µM) | 1 | 16 | 8 (≈ 11 µM) |  | > 256 |  |  |  |  |  | 
CC[C@H]1/C=C/C=C/C[C@@H](C)[C@H](O)[C@@](C)(O)C(=O)[C@@H](C)[C@H](O)[C@@H](C)C(=O)[C@@H](C)[C@H](O)[C@@H](C)/C=C/C(=O)O[C@@H]2[C@H](C)[C@H](CC1)O[C@]1(CC[C@H](C)[C@H](C[C@@H](C)O)O1)[C@H]2C [Oligomycin, oligomycin] |  |  |  |  |  |  |  |  |  |  |  |  | 0.54 ± 0.01 | 185 | 132 | noncompetitive inhibition |  | 
CC[C@@H]([C@H](C)O)n1ncn(-c2ccc(N3CCN(c4ccc(OC[C@@H]5CO[C@@](Cn6cncn6)(c6ccc(F)cc6F)C5)cc4)CC3)cc2)c1=O [PSC, posaconazole] | 16 | 2 (≈ 2.85 µM) | 32 (≈ 45.7 µM) |  | 0.063 (≈ 0.0899 µM) | 0.016 (≈ 0.0228 µM) | 2 (≈ 2.85 µM) | 16 |  | 1 (≈ 1.43 µM) |  |  |  |  |  |  |  | 
CC/N=c1\cc2oc3cc(NCC)c(C)cc3c(-c3ccccc3C(=O)OCC)c-2cc1C [R6G, rhodamine 6G] | 2 | 16 (≈ 36.2 µM) | 32 (≈ 72.3 µM) | 8 | 4 (≈ 9.04 µM) | 0.5 (≈ 1.13 µM) | 32 (≈ 72.3 µM) | 1 |  | 32 (≈ 72.3 µM) |  | 32 |  |  |  |  |  | 
C[C@@H](c1ncncc1F)[C@](O)(Cn1cncn1)c1ccc(F)cc1F [VRC, voriconazole] | 1 | 8 (≈ 22.9 µM) | 8 (≈ 22.9 µM) | 8 | 1 (≈ 2.86 µM) | 0.016 (≈ 0.0458 µM) | 8 (≈ 22.9 µM) | 1 | 2 | 4 (≈ 11.5 µM) |  |  |  |  |  |  |  | 
[O]=[V]([O-])([O-])[O-] [Vanadate, vanadate] |  |  |  |  |  |  |  |  |  |  |  |  | 0.96 ± 0.08 | 161 |  | uncompetitive inhibitor | 1.2 | 90
